# Where two headings read alike, the source gives them in different places.
# Key:
# [1] = tested on: Staphylococcus epidermidis; assay: Disc diffusion antimicrobial susceptibility test, Staphylococcus epidermidis; format: cell-based; design: key to Inhibition diameter: -: no growth of the organism
# Method: (§1) The plates were incubated for 24 h at 37 °C.
# [2] = pKa / pKB by potentiometric acid-base titration and formation constant log(KS); details: calculated from pKA of acid and pKB of base
# Method: Determination of formation constant pKs
# Zabrze, Poland). For the measurement of pKA acids, 0.1 M NaOH was used. In order to
# ester hydrochloride, HCl aqueous solution, was added in an amount that allowed reach-
# After that, an acid-base titration was made out by adding dropwise 5 mM
# [3] = n-octanol-water partition coefficient (logP), shake flask method; format: physicochemical; details: n-octanol-water, shake flask; read-out: LogP
# Escherichia coli = assay: Disc diffusion antimicrobial susceptibility test, Escherichia coli; format: cell-based; design: key to Inhibition diameter: -: no growth of the organism; details: for zone of inhibition at 400000 µg/mL: solution transferred to disc 400 mg cm^−3; for zone of inhibition at 600000 µg/mL: solution transferred to disc 600 mg cm^−3
# Method: as §1
# Micrococcus Luteus = assay: Disc diffusion antimicrobial susceptibility test, Micrococcus luteus; format: cell-based; design: key to Inhibition diameter: -: no growth of the organism; details: for zone of inhibition at 600000 µg/mL: solution transferred to disc 600 mg cm^−3; for zone of inhibition at 800000 µg/mL: solution transferred to disc 800 mg cm^−3
# [4] = Solubility in water and phosphate buffers; details: for Solubility in Water, as active substance: deionized water, 25 °C; for Solubility in Water, as active substance / Solubility in Phosphate Buffer pH = 5.4, as active substance / Solubility in Phosphate Buffer pH = 7.4, as active substance: AS = unmodified acid; for Solubility in Phosphate Buffer pH = 5.4, as active substance: pH 5.4, 25 °C; for Solubility in Phosphate Buffer pH = 7.4, as active substance: pH 7.4, 25 °C
# From the text: This study aims to compare the influence of amino acid structure on the physicochemical properties of NSAID salts with the isopropyl ester of amino acids.
# [5] = Thermogravimetric analysis (thermal stability); details: air atmosphere, 10 °C min−1
# In short: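 Samples of 5–8 mg heated in Al2O3 crucibles under air (25 cm3 min−1) with nitrogen flow (10 cm3 min−1). Start of thermal degradation taken as the onset of the TG curve in the first decomposition phase.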
# [6] = Solubility in organic solvents (modified Vogel's method); details: 25 °C
# [7] = 25 °C; cited from earlier work
# [8] = cited from earlier work
# [9] = solution transferred to disc 25 mg cm^−3
# [10] = solution transferred to disc 50 mg cm^−3
# [11] = solution transferred to disc 100 mg cm^−3
# [12] = solution transferred to disc 200 mg cm^−3
# [13] = solution transferred to disc 400 mg cm^−3
# [14] = Escherichia coli, 24 h, read-out: Inhibition diameter
# [15] = Micrococcus luteus, 24 h, read-out: Inhibition diameter
smiles,measurement,setting,value
"CC(C)OC(=O)[C@@H](N)[C@@H](C)O.O=C(O)c1ccccc1O [[L-ThrOiPr][SA], L-threonine isopropyl ester salicylate]",Inhibition diameter,[1]; [9],-
same,Inhibition diameter,[1]; [10],-
same,Inhibition diameter,[1]; [11],-
same,Inhibition diameter,[1]; [12],-
same,Inhibition diameter,[1]; [13],-
same,Inhibition diameter,[1]; solution transferred to disc 600 mg cm^−3,-
same,Inhibition diameter,[1]; solution transferred to disc 800 mg cm^−3,-
same,Inhibition diameter,[1]; solution transferred to disc 1000 mg cm^−3,-
same,Log(KS) formation constant,[2],7.94
same,logP,[3],1.55 ± 0.021
same,zone of inhibition at 400000 µg/mL,Escherichia coli; [14],7.3 ± 0.2 mm
same,zone of inhibition at 600000 µg/mL,Escherichia coli; [14],9.3 ± 0.4 mm
same,Inhibition diameter,Escherichia coli; [9],-
same,Inhibition diameter,Escherichia coli; [10],-
same,Inhibition diameter,Escherichia coli; [11],-
same,Inhibition diameter,Escherichia coli; [12],-
same,concentrations at which the antimicrobial effect was observed,Micrococcus Luteus; M. Luteus,in all tested concentration ranges
same,zone of inhibition at 25000 µg/mL,"Micrococcus Luteus; Micrococcus luteus, 24 h, solution transferred to disc 25 mg cm^−3, read-out: Inhibition diameter",6.3 ± 0.1 mm
same,zone of inhibition at 50000 µg/mL,"Micrococcus Luteus; Micrococcus luteus, 24 h, solution transferred to disc 50 mg cm^−3, read-out: Inhibition diameter",6.6 ± 0.2 mm
same,zone of inhibition at 100000 µg/mL,"Micrococcus Luteus; Micrococcus luteus, 24 h, solution transferred to disc 100 mg cm^−3, read-out: Inhibition diameter",7 ± 0.1 mm
same,zone of inhibition at 200000 µg/mL,"Micrococcus Luteus; Micrococcus luteus, 24 h, solution transferred to disc 200 mg cm^−3, read-out: Inhibition diameter",7.6 ± 0.2 mm
same,zone of inhibition at 400000 µg/mL,"Micrococcus Luteus; Micrococcus luteus, 24 h, solution transferred to disc 400 mg cm^−3, read-out: Inhibition diameter",8.1 ± 0.1 mm
same,zone of inhibition at 600000 µg/mL,Micrococcus Luteus; [15],8.7 ± 0.5 mm
same,zone of inhibition at 800000 µg/mL,Micrococcus Luteus; [15],10.2 ± 0.7 mm
same,"Solubility in Water, as active substance",[4],17.925 ± 0.241 gAS dm^−3
same,"Solubility in Phosphate Buffer pH = 5.4, as active substance",[4],13.978 ± 0.018 gAS dm^−3
same,solubility thermodynamic,"[4]; pH 5.4, aqueous buffer",30.189 ± 0.018 mg/mL
same,"Solubility in Phosphate Buffer pH = 7.4, as active substance",[4],18.777 ± 0.125 gAS dm^−3
same,solubility thermodynamic,"[4]; pH 7.4, aqueous buffer",40.76 ± 0.125 mg/mL
same,solubility thermodynamic,[4]; water,38.71 ± 0.241 mg/mL
same,"TDTGmax, maximum decomposition temperature",[5]; DTG,191.4 °C
same,"TTGonset, the onset of the thermal degradation",[5]; TG,127.2 °C
same,Solubility in Chloroform (39.1),[6],○ (soluble >100 mg cm^−3)
same,Solubility in DMSO (45.1),[6],○ (soluble >100 mg cm^−3)
same,Solubility in Dichloromethane (40.7),[6],○ (soluble >100 mg cm^−3)
same,Solubility in Diethyl Ether (34.5),[6],● (insoluble <33 mg cm^−3)
same,Solubility in Ethanol (59.1),[6],○ (soluble >100 mg cm^−3)
same,Solubility in Ethyl Acetate (38.1),[6],○ (soluble >100 mg cm^−3)
same,Solubility in Hexane (31.0),[6],● (insoluble <33 mg cm^−3)
same,Solubility in Toluene (33.9),[6],● (insoluble <33 mg cm^−3)
CC(C)OC(=O)C(N)C(C)C.O=C(O)c1ccccc1O [[L-ValOiPr][SA]],Solubility in Chloroform (39.1),[7],○ [49] (soluble >100 mg cm^−3)
same,Solubility in DMSO (45.1),[7],○ [49] (soluble >100 mg cm^−3)
same,Solubility in Dichloromethane (40.7),[7],○ [49] (soluble >100 mg cm^−3)
same,Solubility in Diethyl Ether (34.5),[7],◐ [49] (partially soluble 33–100 mg cm^−3)
same,Solubility in Ethanol (59.1),[7],○ [49] (soluble >100 mg cm^−3)
same,Solubility in Ethyl Acetate (38.1),[7],◐ [49] (partially soluble 33–100 mg cm^−3)
same,Solubility in Hexane (31.0),[7],● [49] (insoluble <33 mg cm^−3)
same,Solubility in Toluene (33.9),[7],○ [49] (soluble >100 mg cm^−3)
same,zone of inhibition at 600000 µg/mL,"[1]; Staphylococcus epidermidis, 24 h, solution transferred to disc 600 mg cm^−3, read-out: Inhibition diameter",6.7 ± 0.3 mm
same,zone of inhibition at 800000 µg/mL,"[1]; Staphylococcus epidermidis, 24 h, solution transferred to disc 800 mg cm^−3, read-out: Inhibition diameter",8.4 ± 0.3 mm
same,Inhibition diameter,[1]; [9],-
same,Inhibition diameter,[1]; [10],-
same,Inhibition diameter,[1]; [11],-
same,Inhibition diameter,[1]; [12],-
same,Inhibition diameter,[1]; [13],-
same,Log(KS) formation constant,[2],7.03
same,logP,[3],1.61 ± 0.057
same,zone of inhibition at 50000 µg/mL,"Escherichia coli; Escherichia coli, 24 h, solution transferred to disc 50 mg cm^−3, read-out: Inhibition diameter",6.2 ± 0.1 mm
same,zone of inhibition at 100000 µg/mL,"Escherichia coli; Escherichia coli, 24 h, solution transferred to disc 100 mg cm^−3, read-out: Inhibition diameter",6.3 ± 0.2 mm
same,zone of inhibition at 200000 µg/mL,"Escherichia coli; Escherichia coli, 24 h, solution transferred to disc 200 mg cm^−3, read-out: Inhibition diameter",7.5 ± 0.1 mm
same,zone of inhibition at 400000 µg/mL,Escherichia coli; [14],8.9 ± 0.4 mm
same,zone of inhibition at 600000 µg/mL,Escherichia coli; [14],12.6 ± 0.3 mm
same,Inhibition diameter,Escherichia coli; [9],-
same,"TDTGmax, maximum decomposition temperature",[8]; DTG,197.6 [49] °C
same,"TTGonset, the onset of the thermal degradation",[8]; TG,124.6 [49] °C
same,zone of inhibition at 600000 µg/mL,Micrococcus Luteus; [15],8.6 ± 0.3 mm
same,zone of inhibition at 800000 µg/mL,Micrococcus Luteus; [15],15.9 ± 1.2 mm
same,Inhibition diameter,Micrococcus Luteus; [9],-
same,Inhibition diameter,Micrococcus Luteus; [10],-
same,Inhibition diameter,Micrococcus Luteus; [11],-
same,Inhibition diameter,Micrococcus Luteus; [12],-
same,Inhibition diameter,Micrococcus Luteus; [13],-
same,"Solubility in Water, as active substance",[4],7.761 ± 2.044 gAS dm^−3
same,"Solubility in Phosphate Buffer pH = 5.4, as active substance",[4],5.259 ± 0.014 gAS dm^−3
same,solubility thermodynamic,"[4]; pH 5.4, aqueous buffer",11.32 ± 0.014 mg/mL
same,"Solubility in Phosphate Buffer pH = 7.4, as active substance",[4],8.702 ± 0.027 gAS dm^−3
same,solubility thermodynamic,"[4]; pH 7.4, aqueous buffer",18.73 ± 0.027 mg/mL
same,solubility thermodynamic,[4]; water,16.7 ± 2.04 mg/mL

# From article PMC9693575, “Isopropyl Amino Acid Esters Ionic Liquids as Vehicles for Non-Steroidal Anti-Inflammatory Drugs in Potential Topical Drug Delivery Systems with Antimicrobial Activity” (International Journal of Molecular Sciences, 2022)
